{
  "source": "ChEMBL document CHEMBL5532727",
  "about": "“The Inhibitors of Mucosa-Associated Lymphoid Tissue Lymphoma Translocation Protein 1 (MALT-1) Protease as Potential Treatment of ABC-DLBCL and Similar Diseases” (ACS Med Chem Lett, 2024)",
  "assay": "Inhibition of IL-6 production in MALT-1 dependent human OCILY3 cells incubated for 48 hrs by AlphaLISA immunoassay",
  "format": "functional, cell-based",
  "settings": "OCI-Ly3, 48 h",
  "data": [
    {"smiles": "CO[C@H](C)c1c(Nc2ccc([C@H](N(C)C(=O)C3CCS(=O)(=O)CC3)C(F)(F)F)cc2)cnc2sc(C)nc12", "values": [
      {"measurement": "EC50", "result": 70, "unit": "nM"}
    ]},
    {"smiles": "CO[C@@H](C)c1c(Nc2ccc([C@H](N(C)C(=O)C3CCS(=O)(=O)CC3)C(F)(F)F)cc2)cnc2sc(C(F)F)nc12", "values": [
      {"measurement": "EC50", "result": 300, "unit": "nM"}
    ]},
    {"smiles": "CO[C@H](c1c(Nc2ccc([C@@H](C(F)F)N(C)C(=O)C3CCN(C(=O)CO)CC3)cc2)cnc2sc(C)nc12)C(F)F", "values": [
      {"measurement": "EC50", "result": 440, "unit": "nM"}
    ]},
    {"smiles": "CO[C@@H](C)c1c(Nc2ccc([C@H](N(C)C(=O)C3CCS(=O)(=O)CC3)C(F)(F)F)cc2)cnc2sc(C)nc12", "values": [
      {"measurement": "EC50", "result": 200, "unit": "nM"}
    ]},
    {"smiles": "CO[C@H](C)c1c(Nc2ccc([C@@H](C(F)F)N(C)C(=O)C3CCS(=O)(=O)CC3)cc2)cnc2sc(C)nc12", "values": [
      {"measurement": "EC50", "result": 200, "unit": "nM"}
    ]},
    {"smiles": "CO[C@H](c1c(Nc2ccc([C@@H](C(F)F)N(C)C(=O)C3CCN(C(=O)CO)CC3)cc2)cnc2sc(C)nc12)C(F)(F)F", "values": [
      {"measurement": "EC50", "result": 270, "unit": "nM"}
    ]},
    {"smiles": "CO[C@H](c1c(Nc2ccc([C@H](N(C)C(=O)C3CCN(C(C)=O)CC3)C(F)(F)F)cc2)cnc2sc(C)nc12)C(F)F", "values": [
      {"measurement": "EC50", "result": 1150, "unit": "nM"}
    ]},
    {"smiles": "CO[C@@H](C)c1c(Nc2ccc([C@H](N(C)C(=O)C3CCN(C(=O)[C@H](O)CO)CC3)C(F)(F)F)cc2)cnc2sc(C)nc12", "values": [
      {"measurement": "EC50", "result": 410, "unit": "nM"}
    ]},
    {"smiles": "CO[C@@H](c1c(Nc2ccc([C@H](N(C)C(=O)C3CCS(=O)(=O)CC3)C(F)(F)F)cc2)cnc2sc(C)nc12)C(F)F", "values": [
      {"measurement": "EC50", "result": 340, "unit": "nM"}
    ]},
    {"smiles": "CO[C@H](c1c(Nc2ccc([C@H](N(C)C(=O)C3CCS(=O)(=O)CC3)C(F)(F)F)cc2)cnc2sc(C)nc12)C(F)F", "values": [
      {"measurement": "EC50", "result": 140, "unit": "nM"}
    ]},
    {"smiles": "CO[C@@H](C)c1c(Nc2ccc([C@H](N(C)C(=O)C3CCN(C(=O)CCO)CC3)C(F)(F)F)cc2)cnc2sc(C)nc12", "values": [
      {"measurement": "EC50", "result": 380, "unit": "nM"}
    ]},
    {"smiles": "Cc1nc2c([C@H](C)C(F)(F)F)c(Nc3ccc([C@H](N(C)C(=O)C4CCS(=O)(=O)CC4)C(F)(F)F)cc3)cnc2s1", "note": "(single isomer, unassigned)", "values": [
      {"measurement": "EC50", "result": 40, "unit": "nM"}
    ]}
  ]
}
